This is an account of results in ChEMBL document CHEMBL1201862, “PubChem BioAssay data set” (2004).

Molecules are shown by their SMILES.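 Briefly, cells in 96-well plates were exposed to five compound concentrations for 48 h, and endpoints were estimated by linear interpolation. Here, GI50 denotes the concentration required for 50% inhibition of growth.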 Calls of active or inactive are those of the source. No stated cut-off is given here; in the data, active = GI50 up to about 1.1 µM and inactive = higher.

Among the test systems are NCI-H226; OVCAR-8; A549; SK-MEL-2; EKVX; 786-0; TK-10; M14; SK-MEL-28; SN12C; A498; NCI-H23; OVCAR-4; Malme-3M; UACC-62; UO-31; CCRF-CEM; LOX IMVI.
Common to all, as to experiment: NCI anticancer screen, dose series, 48 h

In the case of `COc1cccc2c1[C@H]1OC(=O)NC1CCCCC2` (stereo not given in full), the GI50 in the test with NCI-H226, in the test on OVCAR-8, in the test on A549, with SK-MEL-2, with EKVX and with 786-0 was > 100 µM (inactive) each time. Further, the GI50 with TK-10, with M14, in the test with SK-MEL-28, with SN12C, with A498 and with NCI-H23 was > 100 µM (inactive) throughout. The GI50 with OVCAR-4, in the test with Malme-3M, with UACC-62, with UO-31, with CCRF-CEM and in the test on LOX IMVI was > 100 µM (inactive) in each case.

Regarding `O=C1Nc2ccccc2/C1=N/NC(=O)c1ccccc1O`, the GI50 was 33.2 µM (inactive) in the test on NCI-H226; 44.5 µM (inactive) in the test on OVCAR-8; 55.3 µM (inactive) in the test with A549; 23 µM (inactive) with SK-MEL-2; 68.5 µM (inactive) with EKVX; 53.3 µM (inactive) in the test on 786-0. The GI50 was 65.9 µM (inactive) in the test with TK-10; 50.1 µM (inactive) with M14; 60.5 µM (inactive) in the test with SK-MEL-28; 35.2 µM (inactive) with SN12C; 23.5 µM (inactive) with A498; 24.5 µM (inactive) in the test with NCI-H23. Moreover, the GI50 in the test with OVCAR-4 was 75.5 µM (inactive); with Malme-3M, 35.1 µM (inactive); with UACC-62 it was 36.1 µM (inactive); in the test with UO-31 it was 28.2 µM (inactive); with CCRF-CEM it was 33.4 µM (inactive); in the test on LOX IMVI, 48.4 µM (inactive).

For `[O-][n+]1c2cc(CN3CCOCC3)c(CN3CCOCC3)cc2[n+]([O-])c2c(O)cccc21`, the GI50 with NCI-H226 is 8.65 µM (inactive); with OVCAR-8, 2.48 µM (inactive); with SK-MEL-2 it was 5.56 µM (inactive); with EKVX it was 6.53 µM (inactive); in the test on 786-0, 1.41 µM (inactive); in the test with TK-10 it was > 20.4 µM (inactive). Also, the GI50 in the test on M14 is 3.64 µM (inactive); in the test on SK-MEL-28, 14 µM (inactive); in the test on SN12C, 2.87 µM (inactive); with A498 it was 11 µM (inactive); in the test on NCI-H23 it was 2.37 µM (inactive); in the test on OVCAR-4 it was 4.29 µM (inactive). In addition, the GI50 with Malme-3M is 8.73 µM (inactive); in the test with UACC-62, 4.21 µM (inactive); with UO-31, 3.72 µM (inactive); with CCRF-CEM, 0.427 µM (active); with LOX IMVI, 4.02 µM (inactive).

As for `CC(=O)NC(CCCCNCc1ccccc1)C(=O)NCc1ccccc1` (stereo not given), the GI50 with NCI-H226, in the test on OVCAR-8, with A549, with SK-MEL-2, in the test with EKVX and in the test on 786-0 was > 100 µM (inactive) each time. The GI50 in the test with TK-10, in the test with M14, with SK-MEL-28, with SN12C, in the test on A498 and with NCI-H23 was > 100 µM (inactive) each time. The GI50 in the test with OVCAR-4, in the test with Malme-3M, with UACC-62, in the test on UO-31, in the test with CCRF-CEM and in the test on LOX IMVI was > 100 µM (inactive) throughout.

Consider `CCOC(=O)NC(=O)c1cn(CCCO)c(=O)[nH]c1=O`, for which the GI50 with NCI-H226, with OVCAR-8, in the test with A549, in the test on SK-MEL-2, with EKVX and in the test with 786-0 was > 100 µM (inactive) throughout. For the same compound, the GI50 with TK-10, in the test on M14, in the test on SK-MEL-28, in the test with SN12C, with A498 and in the test with NCI-H23 was > 100 µM (inactive) throughout. Besides, the GI50 in the test with OVCAR-4, in the test on Malme-3M, in the test on UACC-62, with UO-31, in the test on CCRF-CEM and with LOX IMVI was > 100 µM (inactive) in each case.

Consider `CN(C)CCNC(=O)c1cccc2ccc(-c3ccc(-c4ccccc4)cc3)nc12`, for which the GI50 was 13.1 µM (inactive) in the test with NCI-H226; 2.56 µM (inactive) in the test on OVCAR-8; 2.89 µM (inactive) in the test on A549; 18.3 µM (inactive) in the test on SK-MEL-2; 8.17 µM (inactive) in the test on EKVX; 1.79 µM (inactive) with 786-0. Besides, the GI50 was 4.48 µM (inactive) in the test with TK-10; 1.77 µM (inactive) in the test on M14; 1.76 µM (inactive) in the test with SK-MEL-28; 6.59 µM (inactive) in the test with SN12C; 3.44 µM (inactive) with A498; 5.69 µM (inactive) in the test with NCI-H23. In addition, the GI50 in the test with OVCAR-4 is 2.72 µM (inactive); with Malme-3M, 1.97 µM (inactive); in the test on UACC-62, 18.2 µM (inactive); in the test on UO-31, 11.7 µM (inactive); with CCRF-CEM it was 2.72 µM (inactive); with LOX IMVI it was 1.63 µM (inactive).

`CN(C)c1[se]nc2c1c(=O)n(C)c(=O)n2C`: the GI50 with NCI-H226, in the test on OVCAR-8, in the test on A549, in the test on SK-MEL-2, in the test on EKVX and with 786-0 was > 100 µM (inactive) throughout. Also, the GI50 in the test on TK-10, in the test on SK-MEL-28, in the test with SN12C, in the test on A498, in the test with NCI-H23 and with OVCAR-4 was > 100 µM (inactive) throughout. The GI50 in the test with Malme-3M, in the test with UACC-62, with UO-31, in the test with CCRF-CEM and with LOX IMVI was > 100 µM (inactive) each time.

Consider `O=C(/C=C/c1ccc(OCCCOc2ccc(/C=C/C(=O)c3ccccc3)cc2)cc1)c1ccccc1`, for which the GI50 in the test on NCI-H226 was 36.3 µM (inactive); with OVCAR-8, > 100 µM (inactive); in the test on A549, > 100 µM (inactive); with SK-MEL-2, > 100 µM (inactive); in the test with EKVX it was > 100 µM (inactive); in the test with 786-0, 57.4 µM (inactive). Besides, the GI50 in the test with TK-10, in the test on M14, in the test with SK-MEL-28, with SN12C, in the test on A498 and with NCI-H23 was > 100 µM (inactive) in each case. Further, the GI50 in the test on OVCAR-4, with Malme-3M, in the test on UACC-62, with UO-31, in the test with CCRF-CEM and with LOX IMVI was > 100 µM (inactive) in each case.

With `COC(=O)NC(=O)c1cn(CCCOC(=O)CCCCCCCCC(=O)OCCCn2cc(C(=O)NC(=O)OC)c(=O)[nH]c2=O)c(=O)[nH]c1=O`, the GI50 in the test with NCI-H226 is > 100 µM (inactive); in the test with OVCAR-8, 23.9 µM (inactive); with A549, > 100 µM (inactive); in the test with SK-MEL-2 it was > 100 µM (inactive); in the test with EKVX it was 55.2 µM (inactive); in the test on 786-0, 88.5 µM (inactive). Besides, the GI50 with TK-10 was 36.8 µM (inactive); in the test with M14, > 100 µM (inactive); in the test with SK-MEL-28 it was > 100 µM (inactive); with SN12C it was > 100 µM (inactive); in the test on A498 it was > 100 µM (inactive); with NCI-H23 it was 39.3 µM (inactive). The GI50 in the test on OVCAR-4, in the test on Malme-3M, with UACC-62, in the test with UO-31, in the test with CCRF-CEM and in the test with LOX IMVI was > 100 µM (inactive) in each case.

As to `O=c1c2cc(Br)cc(Br)c2[nH]c(=S)n1-c1ccccc1`, the GI50 was 30.2 µM (inactive) in the test on NCI-H226; 63 µM (inactive) in the test on OVCAR-8; 63.1 µM (inactive) in the test on A549; > 100 µM (inactive) in the test with SK-MEL-2; 58.1 µM (inactive) in the test with EKVX; 99.1 µM (inactive) in the test on 786-0. Also, the GI50 in the test on TK-10 was 78.3 µM (inactive); in the test with M14, > 100 µM (inactive); in the test with SK-MEL-28, 50.7 µM (inactive); in the test with SN12C, 78.5 µM (inactive); in the test with A498, > 100 µM (inactive); with NCI-H23 it was 28.4 µM (inactive). Besides, the GI50 is 86.3 µM (inactive) with OVCAR-4; 82.4 µM (inactive) with Malme-3M; 91.2 µM (inactive) in the test on UACC-62; 40.5 µM (inactive) with UO-31; 42.2 µM (inactive) with CCRF-CEM; 75.2 µM (inactive) with LOX IMVI.

Regarding `CSc1nc(NC2OCC(OC(C)=O)C(OC(C)=O)C2OC(C)=O)c2c(OC(C)=O)c(C)c(=O)oc2n1` (stereo not given), the GI50 in the test with NCI-H226, in the test with OVCAR-8, with A549, in the test with SK-MEL-2, in the test on EKVX and in the test with 786-0 was > 100 µM (inactive) each time. For the same compound, the GI50 with TK-10, with M14, in the test on SN12C, in the test with A498, with NCI-H23 and in the test on OVCAR-4 was > 100 µM (inactive) throughout. Also, the GI50 in the test with Malme-3M, in the test on UACC-62, in the test on UO-31, in the test on CCRF-CEM and in the test on LOX IMVI was > 100 µM (inactive) in each case.
